Reference: US10168342B2, “Lipid probes and uses thereof” (THE SCRIPPS RESEARCH INSTITUTE, priority 2015, dated 2019)

Experiments:
Test in all cases: isoTOP-ABPP mapping of AEA-DA-modified peptides in Neuro2a cells
Assay type in all cases: cell-based
[1] = target: T1, AEA-DA-modified peptides in Neuro2a cells (Mus musculus, UniProt Q80UU9); settings: probe 100 μM, 12 replicates
T1 construct: endogenous in cells; host or cells: Neuro2a

[2] = target: T2, AEA-DA-modified peptides in Neuro2a cells (Mus musculus, UniProt P58281); settings: AEA-DA-modified peptide OPA1 P58281 801-819, SEQ ID NO 74; probe 100 μM, 12 replicates
T2 construct: endogenous in cells; host or cells: Neuro2a

[3] = target: T3, AEA-DA-modified peptides in Neuro2a cells (Mus musculus, UniProt Q9QUM9); settings: AEA-DA-modified peptide PSMA6 Q9QUM9 103-117, SEQ ID NO 89; probe 100 μM, 12 replicates
T3 construct: endogenous in cells; host or cells: Neuro2a

[4] = target: T4, AEA-DA-modified peptides in Neuro2a cells (Mus musculus, UniProt Q9Z0V8); settings: probe 100 μM, 12 replicates
T4 construct: endogenous in cells; host or cells: Neuro2a

[5] = target: T5, AEA-DA-modified peptides in Neuro2a cells (Mus musculus, UniProt P52825); settings: AEA-DA-modified peptide CPT2 P52825 363-383, SEQ ID NO 26; probe 100 μM, 12 replicates
T5 construct: endogenous in cells; host or cells: Neuro2a

[6] = target: T6, AEA-DA-modified peptides in Neuro2a cells (Mus musculus, UniProt P47867); settings: AEA-DA-modified peptide SCG3 P47867 178-203, SEQ ID NO 97; probe 100 μM, 12 replicates
T6 construct: endogenous in cells; host or cells: Neuro2a

[7] = target: T7, AEA-DA-modified peptides in Neuro2a cells (Mus musculus, UniProt Q8BMG8); settings: AEA-DA-modified peptide SLC25A32 Q8BMG8 115-146, SEQ ID NO 104; probe 100 μM, 12 replicates
T7 construct: endogenous in cells; host or cells: Neuro2a

[8] = target: T8, AEA-DA-modified peptides in Neuro2a cells (Mus musculus, UniProt Q6PIC6); settings: AEA-DA-modified peptide ATP1A3 Q6PIC6 350-376, SEQ ID NO 18; probe 100 μM, 12 replicates
T8 construct: endogenous in cells; host or cells: Neuro2a

[9] = target: T9, AEA-DA-modified peptides in Neuro2a cells (Mus musculus, UniProt P62814); settings: AEA-DA-modified peptide ATP6V1B2 P62814 68-82, SEQ ID NO 20; probe 100 μM, 12 replicates
T9 construct: endogenous in cells; host or cells: Neuro2a

[10] = target: T10, AEA-DA-modified peptides in Neuro2a cells (Mus musculus, UniProt O88545); settings: AEA-DA-modified peptide COPS6 O88545 274-295, SEQ ID NO 24; probe 100 μM, 12 replicates
T10 construct: endogenous in cells; host or cells: Neuro2a

[11] = target: T11, AEA-DA-modified peptides in Neuro2a cells (Mus musculus, UniProt Q9DCZ4); settings: AEA-DA-modified peptide APOO Q9DCZ4 187-197, SEQ ID NO 9; probe 100 μM, 12 replicates
T11 construct: endogenous in cells; host or cells: Neuro2a
T11 sequence (Q9DCZ4 24-198): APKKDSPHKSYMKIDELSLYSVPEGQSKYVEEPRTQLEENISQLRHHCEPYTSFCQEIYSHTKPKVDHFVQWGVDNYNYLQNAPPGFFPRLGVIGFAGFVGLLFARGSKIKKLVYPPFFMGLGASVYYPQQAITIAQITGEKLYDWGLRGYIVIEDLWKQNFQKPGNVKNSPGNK

T1 sequence (Q80UU9 whole entry): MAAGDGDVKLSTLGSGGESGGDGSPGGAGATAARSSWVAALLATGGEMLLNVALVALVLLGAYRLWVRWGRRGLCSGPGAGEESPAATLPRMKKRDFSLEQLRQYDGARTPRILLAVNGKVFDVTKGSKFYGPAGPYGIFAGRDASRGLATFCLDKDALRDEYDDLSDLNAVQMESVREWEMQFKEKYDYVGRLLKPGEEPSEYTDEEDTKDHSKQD
T4 sequence (Q9Z0V8 whole entry): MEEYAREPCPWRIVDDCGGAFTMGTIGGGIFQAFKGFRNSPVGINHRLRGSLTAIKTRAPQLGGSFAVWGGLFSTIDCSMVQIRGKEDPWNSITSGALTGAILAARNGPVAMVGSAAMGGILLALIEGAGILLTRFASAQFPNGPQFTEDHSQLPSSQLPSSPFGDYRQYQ
T6 sequence (P47867 23-471): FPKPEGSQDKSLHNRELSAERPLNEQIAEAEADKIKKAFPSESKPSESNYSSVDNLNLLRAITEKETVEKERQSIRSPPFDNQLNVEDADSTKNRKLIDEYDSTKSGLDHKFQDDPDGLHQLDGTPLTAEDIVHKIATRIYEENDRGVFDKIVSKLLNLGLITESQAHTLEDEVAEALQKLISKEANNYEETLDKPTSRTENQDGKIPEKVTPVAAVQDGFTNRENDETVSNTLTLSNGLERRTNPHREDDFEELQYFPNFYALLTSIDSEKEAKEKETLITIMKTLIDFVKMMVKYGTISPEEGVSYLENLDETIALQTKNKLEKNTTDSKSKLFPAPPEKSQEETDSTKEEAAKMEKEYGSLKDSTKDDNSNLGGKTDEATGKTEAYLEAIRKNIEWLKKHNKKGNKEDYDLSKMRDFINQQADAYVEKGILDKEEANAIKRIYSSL
T2 sequence (P58281 88-960): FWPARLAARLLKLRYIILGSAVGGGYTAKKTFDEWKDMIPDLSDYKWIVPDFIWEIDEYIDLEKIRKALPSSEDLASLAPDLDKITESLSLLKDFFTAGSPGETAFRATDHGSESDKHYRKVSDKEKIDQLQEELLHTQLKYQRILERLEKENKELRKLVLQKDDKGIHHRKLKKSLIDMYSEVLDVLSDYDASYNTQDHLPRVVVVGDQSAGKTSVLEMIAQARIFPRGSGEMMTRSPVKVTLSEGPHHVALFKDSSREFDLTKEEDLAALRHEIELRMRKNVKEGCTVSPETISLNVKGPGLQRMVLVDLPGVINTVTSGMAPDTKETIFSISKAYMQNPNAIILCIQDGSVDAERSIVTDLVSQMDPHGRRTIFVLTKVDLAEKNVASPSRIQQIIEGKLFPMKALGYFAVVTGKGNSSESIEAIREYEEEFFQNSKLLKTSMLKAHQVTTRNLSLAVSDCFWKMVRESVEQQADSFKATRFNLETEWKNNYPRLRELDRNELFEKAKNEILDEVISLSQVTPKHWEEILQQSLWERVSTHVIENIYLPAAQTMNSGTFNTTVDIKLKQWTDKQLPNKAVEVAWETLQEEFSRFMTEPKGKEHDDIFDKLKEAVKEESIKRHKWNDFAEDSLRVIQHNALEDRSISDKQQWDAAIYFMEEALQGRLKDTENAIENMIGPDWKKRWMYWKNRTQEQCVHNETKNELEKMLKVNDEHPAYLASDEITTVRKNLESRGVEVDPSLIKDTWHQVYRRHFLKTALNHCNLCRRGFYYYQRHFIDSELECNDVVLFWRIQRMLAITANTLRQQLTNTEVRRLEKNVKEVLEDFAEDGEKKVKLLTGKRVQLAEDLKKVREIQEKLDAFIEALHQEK
T9 sequence (P62814 whole entry): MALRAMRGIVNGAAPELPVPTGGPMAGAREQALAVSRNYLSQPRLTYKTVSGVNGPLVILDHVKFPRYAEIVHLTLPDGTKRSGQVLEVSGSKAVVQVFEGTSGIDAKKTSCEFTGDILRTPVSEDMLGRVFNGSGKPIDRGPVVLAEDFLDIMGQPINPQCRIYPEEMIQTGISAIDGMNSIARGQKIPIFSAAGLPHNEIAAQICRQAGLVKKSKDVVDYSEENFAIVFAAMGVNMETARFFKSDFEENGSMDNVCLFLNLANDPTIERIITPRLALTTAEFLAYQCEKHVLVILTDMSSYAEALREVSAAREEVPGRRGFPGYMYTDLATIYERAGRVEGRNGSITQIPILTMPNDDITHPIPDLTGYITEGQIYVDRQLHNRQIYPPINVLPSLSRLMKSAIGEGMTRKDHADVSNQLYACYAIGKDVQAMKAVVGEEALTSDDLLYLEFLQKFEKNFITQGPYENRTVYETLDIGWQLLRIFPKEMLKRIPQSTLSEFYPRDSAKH
T3 sequence (Q9QUM9 whole entry): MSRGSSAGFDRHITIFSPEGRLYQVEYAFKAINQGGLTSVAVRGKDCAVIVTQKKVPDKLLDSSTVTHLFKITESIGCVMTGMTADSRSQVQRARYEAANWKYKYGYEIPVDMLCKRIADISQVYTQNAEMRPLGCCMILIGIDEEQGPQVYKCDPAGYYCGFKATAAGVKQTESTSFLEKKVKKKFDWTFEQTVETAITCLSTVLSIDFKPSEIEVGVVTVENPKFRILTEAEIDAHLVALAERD
T7 sequence (Q8BMG8 whole entry): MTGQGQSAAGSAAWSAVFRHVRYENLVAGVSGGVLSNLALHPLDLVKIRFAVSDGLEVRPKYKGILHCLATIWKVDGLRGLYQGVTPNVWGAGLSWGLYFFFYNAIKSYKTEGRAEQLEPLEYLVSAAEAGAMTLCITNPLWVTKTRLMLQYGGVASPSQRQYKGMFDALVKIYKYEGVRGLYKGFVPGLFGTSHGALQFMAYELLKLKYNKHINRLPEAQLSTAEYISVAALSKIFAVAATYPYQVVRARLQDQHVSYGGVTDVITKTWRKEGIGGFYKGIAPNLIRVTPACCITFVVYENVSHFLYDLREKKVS
T10 sequence (O88545 whole entry): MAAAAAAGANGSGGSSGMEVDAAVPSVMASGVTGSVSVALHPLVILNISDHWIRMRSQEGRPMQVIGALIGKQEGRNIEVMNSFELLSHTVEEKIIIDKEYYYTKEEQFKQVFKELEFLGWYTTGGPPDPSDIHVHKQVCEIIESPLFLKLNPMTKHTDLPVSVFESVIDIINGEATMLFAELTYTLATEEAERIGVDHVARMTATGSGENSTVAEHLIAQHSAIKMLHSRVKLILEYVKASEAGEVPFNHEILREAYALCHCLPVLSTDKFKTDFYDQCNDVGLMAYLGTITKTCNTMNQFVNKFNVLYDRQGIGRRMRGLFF
T5 sequence (P52825 26-658): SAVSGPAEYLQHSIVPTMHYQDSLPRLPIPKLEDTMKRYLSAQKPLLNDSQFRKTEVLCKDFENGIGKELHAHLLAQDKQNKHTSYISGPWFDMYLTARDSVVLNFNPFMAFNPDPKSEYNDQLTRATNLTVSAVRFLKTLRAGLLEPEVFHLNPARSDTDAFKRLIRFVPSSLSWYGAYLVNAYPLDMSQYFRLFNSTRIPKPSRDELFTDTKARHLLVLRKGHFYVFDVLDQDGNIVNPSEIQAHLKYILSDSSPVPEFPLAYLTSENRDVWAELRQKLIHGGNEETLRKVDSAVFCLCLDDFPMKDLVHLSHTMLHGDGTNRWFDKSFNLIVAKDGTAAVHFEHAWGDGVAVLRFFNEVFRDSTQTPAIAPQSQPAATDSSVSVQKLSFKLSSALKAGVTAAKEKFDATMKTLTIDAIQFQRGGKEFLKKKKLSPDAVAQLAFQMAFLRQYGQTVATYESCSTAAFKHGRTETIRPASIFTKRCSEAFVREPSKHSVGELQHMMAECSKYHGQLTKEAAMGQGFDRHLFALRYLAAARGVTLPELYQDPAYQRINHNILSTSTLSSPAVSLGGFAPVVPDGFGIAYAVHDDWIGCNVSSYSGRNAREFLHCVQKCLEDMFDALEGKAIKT

C#CCCCC1(CC/C=C\C/C=C\C/C=C\CCCC(=O)NCCO)N=N1 [AEA-DA, (5Z,8Z,11Z)-N-(2-hydroxyethyl)-14-(3-(pent-4-yn-1-yl)-3H-diazirin-3-yl)tetradeca-5,8,11-trienamide]
Times observed ([1]; AEA-DA-modified peptide PGRMC2 Q80UU9 74-92, SEQ ID NO 84): 2
Times observed ([1]; AEA-DA-modified peptide PGRMC2 Q80UU9 130-144, SEQ ID NO 83): 9
Times observed [2]: 2
Times observed [3]: 8
Times observed ([4]; AEA-DA-modified peptide TIMM17A Q9Z0V8 13-36, SEQ ID NO 111): 9
Times observed ([4]; AEA-DA-modified peptide TIMM17A Q9Z0V8 85-107, SEQ ID NO 112): 4
Times observed [5]: 6
Times observed [6]: 4
Times observed [7]: 6
Times observed [8]: 2
Times observed [9]: 3
Times observed [10]: 8
Times observed [11]: 2
